In this assay the test system is MV-4-11 cells. Put plainly: Gene expression microarray analysis (Affymetrix PrimeView) and GSEA. Type of assay: cell-based, human. Set-up: RFU PODN (11730768_x_at) / Fold change /veh PODN (11730768_x_at) / RFU LINC00158 (11744669_a_at) / Fold change /veh LINC00158 (11744669_a_at) / RFU DUSP10 (11751237_a_at) / Fold change /veh DUSP10 (11751237_a_at) / RFU ID3 (11757404_x_at) / Fold change /veh ID3 (11757404_x_at) / RFU PLEKHG5 (11737974_s_at) / Fold change /veh PLEKHG5 (11737974_s_at) / RFU LRRC4B (11730491_at) / Fold change /veh LRRC4B (11730491_at) / RFU GIMAP4 (11747438_a_at) / Fold change /veh GIMAP4 (11747438_a_at) / RFU KRT8 (11758183_x_at) / Fold change /veh KRT8 (11758183_x_at) / RFU CNN1 (11734310_a_at) / Fold change /veh CNN1 (11734310_a_at) / RFU VPS37D (11726825_at) / Fold change /veh VPS37D (11726825_at) / RFU C10orf10 (11716522_x_at) / Fold change /veh C10orf10 (11716522_x_at) / RFU KIR2DL2 /// KIR2DL4 /// KIR2DL5A /// KIR2DL5B /// KIR2DS1 /// KIR2DS2 /// KIR2DS3 /// KIR2DS4 /// KIR3DL3 /// KIR3DL3 /// KIR3DS1 (11738374_at) / Fold change /veh KIR2DL2 /// KIR2DL4 /// KIR2DL5A /// KIR2DL5B /// KIR2DS1 /// KIR2DS2 /// KIR2DS3 /// KIR2DS4 /// KIR3DL3 /// KIR3DL3 /// KIR3DS1 (11738374_at) / RFU C1QL1 (11718748_at) / Fold change /veh C1QL1 (11718748_at) / RFU TMPRSS4 (11747572_a_at) / Fold change /veh TMPRSS4 (11747572_a_at) / RFU HAMP (11756126_x_at) / Fold change /veh HAMP (11756126_x_at) / RFU RNFT2 (11725882_a_at) / Fold change /veh RNFT2 (11725882_a_at) / RFU NR4A2 (11747474_a_at) / Fold change /veh NR4A2 (11747474_a_at) / RFU ABCC12 (11746883_a_at) / Fold change /veh ABCC12 (11746883_a_at) / RFU TMEM136 (11760407_x_at) / Fold change /veh TMEM136 (11760407_x_at) / RFU CLDN22 /// WWC2 (11732394_at) / Fold change /veh CLDN22 /// WWC2 (11732394_at) / RFU HLA-DPB1 (11760878_x_at) / Fold change /veh HLA-DPB1 (11760878_x_at) / RFU SPINT1 (11716480_a_at) / Fold change /veh SPINT1 (11716480_a_at) / RFU GAP43 (11754022_s_at) / Fold change /veh GAP43 (11754022_s_at) / RFU A4GNT (11735810_at) / Fold change /veh A4GNT (11735810_at) / RFU PRB3 (11715151_x_at) / Fold change /veh PRB3 (11715151_x_at) / RFU TUBB4B (11761932_at) / Fold change /veh TUBB4B (11761932_at) / RFU CAPN14 (11732068_a_at) / Fold change /veh CAPN14 (11732068_a_at) / RFU TMCC2 (11721928_a_at) / Fold change /veh TMCC2 (11721928_a_at) / RFU IRGQ (11745062_a_at) / Fold change /veh IRGQ (11745062_a_at) / RFU FAM174B (11720279_a_at) / Fold change /veh FAM174B (11720279_a_at) / RFU TMPRSS4 (11748680_a_at) / Fold change /veh TMPRSS4 (11748680_a_at) / RFU FAM212B (11763350_a_at) / Fold change /veh FAM212B (11763350_a_at) / RFU PLEKHG5 (11743358_a_at) / Fold change /veh PLEKHG5 (11743358_a_at) / RFU ZSCAN30 (11745921_a_at) / Fold change /veh ZSCAN30 (11745921_a_at) / RFU CMKLR1 (11741424_a_at) / Fold change /veh CMKLR1 (11741424_a_at) / RFU LOC101060620 /// MAPK8IP1 (11723275_at) / Fold change /veh LOC101060620 /// MAPK8IP1 (11723275_at) / RFU SPTSSB (11747773_x_at) / Fold change /veh SPTSSB (11747773_x_at) / RFU PRSS12 (11739890_at) / Fold change /veh PRSS12 (11739890_at) / RFU BIN1 (11741810_x_at) / Fold change /veh BIN1 (11741810_x_at) / RFU WNT11 (11732464_a_at) / Fold change /veh WNT11 (11732464_a_at) / RFU C10orf10 (11716521_a_at) / Fold change /veh C10orf10 (11716521_a_at) / RFU C5orf56 (11738089_at) / Fold change /veh C5orf56 (11738089_at) / RFU CYB561 (11721691_x_at) / Fold change /veh CYB561 (11721691_x_at) / RFU ANKRD19P (11752326_a_at) / Fold change /veh ANKRD19P (11752326_a_at) / RFU OR2T12 /// OR2T33 /// OR2T8 (11738714_s_at) / Fold change /veh OR2T12 /// OR2T33 /// OR2T8 (11738714_s_at) / RFU VCAN (11748164_a_at) / Fold change /veh VCAN (11748164_a_at) / RFU JSRP1 (11732532_at) / Fold change /veh JSRP1 (11732532_at) / RFU KRTAP10-11 (11738290_x_at) / Fold change /veh KRTAP10-11 (11738290_x_at) / RFU MYO3A (11730013_a_at) / Fold change /veh MYO3A (11730013_a_at) / RFU EBF3 (11725865_a_at) / Fold change /veh EBF3 (11725865_a_at) / RFU CAMK2N1 (11719241_x_at) / Fold change /veh CAMK2N1 (11719241_x_at) / RFU C5orf56 (11738088_a_at) / Fold change /veh C5orf56 (11738088_a_at) / RFU OLFML3 (11715873_a_at) / Fold change /veh OLFML3 (11715873_a_at) / RFU LOC100653217 /// NTM (11731650_a_at) / Fold change /veh LOC100653217 /// NTM (11731650_a_at) / RFU MAPK11 (11762145_a_at) / Fold change /veh MAPK11 (11762145_a_at) / RFU FIZ1 (11724087_x_at) / Fold change /veh FIZ1 (11724087_x_at) / RFU OASL (11726364_x_at) / Fold change /veh OASL (11726364_x_at) / RFU SOX15 (11748057_x_at) / Fold change /veh SOX15 (11748057_x_at) / RFU CD79A (11719716_a_at) / Fold change /veh CD79A (11719716_a_at) / RFU HIST1H1D (11736915_at) / Fold change /veh HIST1H1D (11736915_at) / RFU CASKIN2 (11723855_a_at) / Fold change /veh CASKIN2 (11723855_a_at) / RFU LOC730098 (11760151_x_at) / Fold change /veh LOC730098 (11760151_x_at) / RFU OR4N2 (11742367_at) / Fold change /veh OR4N2 (11742367_at) / RFU PRRT2 (11749266_a_at) / Fold change /veh PRRT2 (11749266_a_at) / RFU SNX32 (11753110_a_at) / Fold change /veh SNX32 (11753110_a_at) / RFU CDHR5 (11726645_a_at) / Fold change /veh CDHR5 (11726645_a_at) / RFU RCAN1 (11760418_a_at) / Fold change /veh RCAN1 (11760418_a_at) / RFU FAM167A (11723789_a_at) / Fold change /veh FAM167A (11723789_a_at) / RFU FAM26E (11764081_at) / Fold change /veh FAM26E (11764081_at) / RFU ISYNA1 (11749810_s_at) / Fold change /veh ISYNA1 (11749810_s_at) / RFU ACY1 (11761880_at) / Fold change /veh ACY1 (11761880_at) / RFU 11764098_at / Fold change /veh 11764098_at / RFU SAMD14 (11745864_x_at) / Fold change /veh SAMD14 (11745864_x_at) / RFU NPB (11741838_a_at) / Fold change /veh NPB (11741838_a_at) / RFU TMPRSS6 (11731388_a_at) / Fold change /veh TMPRSS6 (11731388_a_at) / RFU KRTAP10-2 (11738614_at) / Fold change /veh KRTAP10-2 (11738614_at) / RFU ARHGAP8 /// PRR5-ARHGAP8 (11727945_x_at) / Fold change /veh ARHGAP8 /// PRR5-ARHGAP8 (11727945_x_at) / RFU KRTAP5-7 /// NADSYN1 (11734609_at) / Fold change /veh KRTAP5-7 /// NADSYN1 (11734609_at) / RFU RASL12 (11751679_a_at) / Fold change /veh RASL12 (11751679_a_at) / RFU CDKN2B (11736163_a_at) / Fold change /veh CDKN2B (11736163_a_at) / RFU PRF1 (11729649_at) / Fold change /veh PRF1 (11729649_at) / RFU, ZNF638 /// ZNF638-IT1 / Fold change vs veh, ZNF638 /// ZNF638-IT1 / RFU, PANK3 / Fold change vs veh, PANK3 / RFU, SH3YL1 / Fold change vs veh, SH3YL1 / RFU, ZEB2 / Fold change vs veh, ZEB2 / RFU, NRIP1 / Fold change vs veh, NRIP1 / RFU, PTTG1IP / Fold change vs veh, PTTG1IP / RFU, CAPN2 / Fold change vs veh, CAPN2 / RFU, MED14 / Fold change vs veh, MED14 / RFU, SNORA58 / Fold change vs veh, SNORA58 / RFU, C1orf63 / Fold change vs veh, C1orf63 / RFU, LRRFIP1 / Fold change vs veh, LRRFIP1 / RFU, NDUFAF7 / Fold change vs veh, NDUFAF7 / RFU, SLC12A2 / Fold change vs veh, SLC12A2 / RFU, IBTK / Fold change vs veh, IBTK / RFU, ESF1 / Fold change vs veh, ESF1 / Fold change vs veh, TMEM50B / RFU, TAOK1 / Fold change vs veh, TAOK1 / RFU, ACBD3 / Fold change vs veh, ACBD3 / RFU, TMA16 / Fold change vs veh, TMA16 / RFU, RWDD3 / Fold change vs veh, RWDD3 / RFU, BCAT1 / Fold change vs veh, BCAT1 / RFU, EDEM3 / Fold change vs veh, EDEM3 / RFU, TMEM33 / Fold change vs veh, TMEM33 / RFU, WDR75 / Fold change vs veh, WDR75 / RFU, AHCTF1 / Fold change vs veh, AHCTF1 / RFU, TFRC / Fold change vs veh, TFRC / RFU, ZDHHC17 / Fold change vs veh, ZDHHC17 / RFU, NOM1 / Fold change vs veh, NOM1 / RFU, ARL8B / Fold change vs veh, ARL8B / RFU, ZBTB11 / Fold change vs veh, ZBTB11 / RFU, TAMM41 / Fold change vs veh, TAMM41 / RFU, KIAA1704 /// LOC100996395 / Fold change vs veh, KIAA1704 /// LOC100996395 / RFU, ING1 / Fold change vs veh, ING1 / RFU, TRMT61B / Fold change vs veh, TRMT61B / RFU, FUBP3 / Fold change vs veh, FUBP3 / RFU, TP53 / Fold change vs veh, TP53 / RFU, TNKS2 / Fold change vs veh, TNKS2 / RFU, ZFP14 / Fold change vs veh, ZFP14 / RFU, ACTR2 / Fold change vs veh, ACTR2 / RFU, PPP3R1 / Fold change vs veh, PPP3R1 / RFU, PIK3R1 / Fold change vs veh, PIK3R1 / RFU, HNRNPA1 / Fold change vs veh, HNRNPA1 / RFU, RNF170 / Fold change vs veh, RNF170 / RFU, ZNF28 / Fold change vs veh, ZNF28 / RFU, RNGTT / Fold change vs veh, RNGTT / RFU, OGT / Fold change vs veh, OGT / RFU, BRD1 / Fold change vs veh, BRD1 / RFU, MARS / Fold change vs veh, MARS / RFU, ZNF655 / Fold change vs veh, ZNF655 / RFU, FAHD1 / Fold change vs veh, FAHD1 / RFU, BDP1 / Fold change vs veh, BDP1 / RFU, LRRCC1 / Fold change vs veh, LRRCC1 / RFU, ARID1A / Fold change vs veh, ARID1A / RFU, ZNF146 / Fold change vs veh, ZNF146 / RFU, ZNF330 / Fold change vs veh, ZNF330 / RFU, GPN3 / Fold change vs veh, GPN3 / RFU, C9orf123 / Fold change vs veh, C9orf123 / RFU, N4BP2L2 / Fold change vs veh, N4BP2L2 / RFU, ARFIP1 / Fold change vs veh, ARFIP1 / RFU, FAM179B / Fold change vs veh, FAM179B / RFU, BCL10 / Fold change vs veh, BCL10 / RFU, UHRF1BP1L / Fold change vs veh, UHRF1BP1L / RFU, BET1 / Fold change vs veh, BET1 / RFU, CNOT2 / Fold change vs veh, CNOT2 / RFU, ZNF268 / Fold change vs veh, ZNF268 / Fold change vs veh, ZNF507 / RFU, DGCR2 / Fold change vs veh, DGCR2 / RFU, WDSUB1 / Fold change vs veh, WDSUB1 / Fold change vs veh, HSP90B1 /// MIR3652 / RFU, ADSS / Fold change vs veh, ADSS / RFU, GK / Fold change vs veh, GK / RFU, ZNF148 / Fold change vs veh, ZNF148 / RFU, TAF9 / Fold change vs veh, TAF9 / RFU, SLC1A5 / Fold change vs veh, SLC1A5 / RFU, SLMO2 / Fold change vs veh, SLMO2 / RFU, ABCC4 / Fold change vs veh, ABCC4 / RFU, LOC101060439 /// RAP1B / Fold change vs veh, LOC101060439 /// RAP1B / RFU, RFX7 / Fold change vs veh, RFX7 / RFU, GTPBP10 / Fold change vs veh, GTPBP10 / RFU, CNEP1R1 / Fold change vs veh, CNEP1R1 / RFU, BIVM-ERCC5 /// ERCC5 / Fold change vs veh, BIVM-ERCC5 /// ERCC5 / RFU, ILF3 / Fold change vs veh, ILF3 / RFU 11762660_at / Fold change /veh 11762660_at / RFU VCAN (11757783_s_at) / Fold change /veh VCAN (11757783_s_at) / RFU DDX43 (11728927_at) / Fold change /veh DDX43 (11728927_at) / RFU KRT8 (11758188_x_at) / Fold change /veh KRT8 (11758188_x_at) / RFU NKD1 (11759106_at) / Fold change /veh NKD1 (11759106_at) / RFU SRD5A1 (11742802_a_at) / Fold change /veh SRD5A1 (11742802_a_at) / RFU TPSAB1 /// TPSB2 (11721975_s_at) / Fold change /veh TPSAB1 /// TPSB2 (11721975_s_at) / RFU GSTM3 (11746129_a_at) / Fold change /veh GSTM3 (11746129_a_at) / RFU IL23R (11737362_x_at) / Fold change /veh IL23R (11737362_x_at) / RFU TMEM51 (11727254_a_at) / Fold change /veh TMEM51 (11727254_a_at) / RFU PIWIL2 (11732686_x_at) / Fold change /veh PIWIL2 (11732686_x_at) / RFU ORM1 (11744905_x_at) / Fold change /veh ORM1 (11744905_x_at) / RFU CCDC152 (11743942_at) / Fold change /veh CCDC152 (11743942_at) / RFU ECM1 (11717891_a_at) / Fold change /veh ECM1 (11717891_a_at) / RFU IL23R (11748794_a_at) / Fold change /veh IL23R (11748794_a_at) / RFU TNFAIP8L3 (11732012_x_at) / Fold change /veh TNFAIP8L3 (11732012_x_at) / RFU MBOAT4 (11741988_at) / Fold change /veh MBOAT4 (11741988_at) / RFU 11764193_at / Fold change /veh 11764193_at / RFU TMEM53 (11763286_at) / Fold change /veh TMEM53 (11763286_at) / RFU MAGEB2 (11727129_at) / Fold change /veh MAGEB2 (11727129_at) / RFU TMEM200A (11744735_a_at) / Fold change /veh TMEM200A (11744735_a_at) / RFU CCDC152 (11751479_a_at) / Fold change /veh CCDC152 (11751479_a_at) / RFU FAM211A (11726209_a_at) / Fold change /veh FAM211A (11726209_a_at) / RFU RGS16 (11746705_a_at) / Fold change /veh RGS16 (11746705_a_at) / RFU VCAN (11755009_s_at) / Fold change /veh VCAN (11755009_s_at) / RFU RHOB (11743442_s_at) / Fold change /veh RHOB (11743442_s_at) / RFU RGS16 (11720943_a_at) / Fold change /veh RGS16 (11720943_a_at) / RFU RGS16 (11720944_at) / Fold change /veh RGS16 (11720944_at) / RFU, VPS4B / Fold change vs veh, VPS4B / RFU, CREB1 / Fold change vs veh, CREB1 / RFU, DNAJC13 / Fold change vs veh, DNAJC13 / RFU, GNAQ / Fold change vs veh, GNAQ / RFU, CDK5R1 / Fold change vs veh, CDK5R1 / RFU, ZRANB3 / Fold change vs veh, ZRANB3 / RFU, CUL4A / Fold change vs veh, CUL4A / RFU, CCNY / Fold change vs veh, CCNY / RFU, UFL1 / Fold change vs veh, UFL1 / RFU, COG3 / Fold change vs veh, COG3 / RFU, DIAPH2 / Fold change vs veh, DIAPH2 / RFU, SKA2 / Fold change vs veh, SKA2 / RFU, AFF3 / Fold change vs veh, AFF3 / RFU, LMF1 / Fold change vs veh, LMF1 / RFU, IPO11 / Fold change vs veh, IPO11 / RFU, DFFB / Fold change vs veh, DFFB / RFU, FOXP1 / Fold change vs veh, FOXP1 / RFU, CARD8 / Fold change vs veh, CARD8 / RFU, STRN3 / Fold change vs veh, STRN3 / RFU, ADK / Fold change vs veh, ADK / RFU, RASSF2 / Fold change vs veh, RASSF2 / RFU, WIPF1 / Fold change vs veh, WIPF1 / RFU, LARP1B / Fold change vs veh, LARP1B / RFU, RASA1 / Fold change vs veh, RASA1 / RFU, RB1 / Fold change vs veh, RB1 / RFU, PPFIA1 / Fold change vs veh, PPFIA1 / RFU, MAT2A / Fold change vs veh, MAT2A / RFU, CCT5 / Fold change vs veh, CCT5 / RFU, WDR92 / Fold change vs veh, WDR92 / RFU, CUX1 / Fold change vs veh, CUX1 / RFU, TTC7A / Fold change vs veh, TTC7A / RFU, TMEM135 / Fold change vs veh, TMEM135 / RFU, DEPTOR / Fold change vs veh, DEPTOR / RFU, CPM / Fold change vs veh, CPM / RFU, DNAJB6 / Fold change vs veh, DNAJB6 / RFU, CACNA2D3 / Fold change vs veh, CACNA2D3 / RFU, DTX4 / Fold change vs veh, DTX4 / RFU, TFCP2 / Fold change vs veh, TFCP2 / RFU, GMCL1 /// GMCL1P1 / Fold change vs veh, GMCL1 /// GMCL1P1 / RFU, AEBP2 / Fold change vs veh, AEBP2 / RFU, SNHG1 /// SNORD22 /// SNORD25 /// SNORD26 /// SNORD27 /// SNORD28 /// SNORD29 /// SNORD31 / Fold change vs veh, SNHG1 /// SNORD22 /// SNORD25 /// SNORD26 /// SNORD27 /// SNORD28 /// SNORD29 /// SNORD31 / Fold change (Aza/veh), C12orf56 (ProbeSet 11735607_a_at) / Fold change (ACY-1035/veh), C12orf56 (ProbeSet 11735607_a_at) / Fold change (Aza/veh), FGFR1OP (ProbeSet 11751329_s_at) / Fold change (ACY-1035/veh), FGFR1OP (ProbeSet 11751329_s_at) / Fold change (Aza/veh), VPS36 (ProbeSet 11739960_a_at) / Fold change (ACY-1035/veh), VPS36 (ProbeSet 11739960_a_at) / RFU SYPL1 (11715823_x_at) / Fold change /veh SYPL1 (11715823_x_at) / RFU IGFBP7 (11715501_s_at) / Fold change /veh IGFBP7 (11715501_s_at) / RFU REEP3 (11722064_at) / Fold change /veh REEP3 (11722064_at) / RFU IGLL1 (11728026_x_at) / Fold change /veh IGLL1 (11728026_x_at): dose or concentration left out as unconfirmed. Particulars: MV-4-11 cells, 48 hours.

Turning to `Nc1ncn([C@@H]2O[C@H](CO)[C@@H](O)[C@H]2O)c(=O)n1` [azacitidine], the “RFU CDHR5 (11726645_a_at)” value was determined as 45.99 RFU.

The values are drawn from PMC5218480 (PLoS ONE, 2017).
